Measurements as given in patent US20240018166A1, “SULFONYL UREA NLRP3 INFLAMMASOME INHIBITORS” (Venatorx Pharmaceuticals, Inc., priority 2020, published 2024).

Tests used:
IL-1β = IL-1β inhibition assay (ELISA/HTRF of culture supernatants); assay type: cell-based; details: Homo sapiens, PMA-differentiated THP-1 cells, tested 10 μM to 0.003 μM
Method in brief: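 PMA-differentiated THP-1 cells treated at final compound concentrations of 10 μM to 0.003 μM; supernatant IL-1β quantified by Quantikine ELISA or HTRF. Background-subtracted values expressed as % of vehicle controls; EC50 from four-parameter variable-slope nonlinear regression.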

[1] = MTT cell viability assay, THP-1 cells; assay type: cell-based; details: human, unstimulated THP-1 cells, read-out: THP-1 Cytotoxicity CC50
Method in brief: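 Unstimulated THP-1 (5×10^4/well) or HepG2 (5×10^3/well) cells exposed to compound for 72 h, then MTT 3 h at 37 °C. Formazan solubilised overnight in DMF/acetic acid/SDS (THP-1) or in DMSO (HepG2); absorbance 570 nm. CC50 by four-parameter fit of percent vehicle control.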

[2] = MTT cell viability assay, HepG2 cells; assay type: cell-based; details: human, read-out: HepG2 Cytotoxicity CC50
Description: In order to assess the cytotoxicity of the compounds, an MTT cell viability assay was performed in either unstimulated THP-1 or HepG2 cells as follows. 5×10^4 THP-1 or 5×10^3 HepG2 cells were seeded into each well of a 96-well plate in 90 μL of media. Compounds were added to cells as described for the IL-10 assay and returned to the incubator for an additional 72 hours. Next, 25 μL of MTT solution (5 mg/mL in sterile PBS) was added to each well. Plates were incubated for 3 hours at 37° C., 5% CO2. Next, for THP-1 cells, 100 μl of MTT solubilization solution (40% Dimethylformamide, 2% glacial acetic acid, 16% sodium dodecyl sulfate) was then added to each well and plates were incubated at room temperature in the dark overnight. For HepG2 cells, media was aspirated, 50 μL of DMSO was added and plates were mixed briefly with an orbital plate shaker. Absorbance at 570 nm was measured using a Perkin-Elmer EnVision plate reader.
Absorbance values were converted to percentage of vehicle-treated controls. Data was then analyzed using a non-linear regression (variable slope (four-parameter)) equation in GraphPad Prism 7.0. […]

IL-1 = biological target: T1, IL-1 (Homo sapiens, UniProt P01584); details: cited from earlier work
T1 construct: host or cells: patients (in vivo)

EC50 (IL-1β)	Molecule	CC50 at 72 h [1]	CC50 at 72 h [2]	incidence of fatal infection (IL-1; CANTOS trial)	reduction in total cancer mortality (mostly lung cancer) compared to placebo (IL-1; high-dose)
1 to 10 µM	CC(CCB1O[C@@H]2C[C@@H]3C[C@@H](C3(C)C)[C@]2(C)O1)n1ccc(S(=O)(=O)NC(=O)Nc2c3c(cc4c2CCC4)CCC3)n1 (stereo partly drawn) [Example 60, N-((1,2,3,5,6,7-hexahydro-s-indacen-4-yl)carbamoyl)-1-(4-((3aS,4S,6S,7aR)-3a,5,5-trimethylhexahydro-4,6-methanobenzo[d][1,3,2]dioxaborol-2-yl)butan-2-yl)-1H-pyrazole-3-sulfonamide]	> 10 µM	> 10 µM		
< 1 µM	CC(CCn1ccc(S(=O)(=O)NC(=O)Nc2c3c(cc4c2CCC4)CCC3)n1)CB1OC(C)(C)C(C)(C)O1 (centres unmarked) [Example 61, N-((1,2,3,5,6,7-hexahydro-s-indacen-4-yl)carbamoyl)-1-(3-methyl-4-(4,4,5,5-tetramethyl-1,3,2-dioxaborolan-2-yl)butyl)-1H-pyrazole-3-sulfonamide]	> 10 µM	> 10 µM		
< 1 µM	CC(C)(CCn1ccc(S(=O)(=O)NC(=O)Nc2c3c(cc4c2CCC4)CCC3)n1)B1OC(C)(C)C(C)(C)O1 [Example 62, N-((1,2,3,5,6,7-hexahydro-s-indacen-4-yl)carbamoyl)-1-(3-methyl-3-(4,4,5,5-tetramethyl-1,3,2-dioxaborolan-2-yl)butyl)-1H-pyrazole-3-sulfonamide]	> 10 µM	> 10 µM		
	canakinumab: the neutralizing IL-10 antibody canakinumab (anti-IL-1, Novartis)			higher incidence of fatal infection	> 50%
